This is an account of results in PMC10272180, “Ancient medicinal plant rosemary contains a highly efficacious and isoform-selective KCNQ potassium channel opener” (Communications Biology, 2023).

Test [1] deals with KCNQ3* (KCNQ3-A315T) (Homo sapiens, UniProt O43525, A315T). Nature of the test: TEVC of KCNQ3* homomers expressed in Xenopus laevis oocytes. The format is cell-based. Particulars: 100 µM.
From the text: We generated cRNA transcripts encoding human KCNQ1, 2, 3, and 5 (wild-type and mutant) by in vitro transcription using the mMessage mMachine kit (Thermo Fisher Scientific, Waltham, MA, USA) according to manufacturer’s instructions, after vector linearization, from cDNA sub-cloned into expression vectors (pTLNx and pXOOM) incorporating Xenopus laevis β-globin 5’ and 3’ UTRs flanking the coding region to enhance translation and cRNA stability. Mutant KCNQ cDNAs were generated by Genscript (Piscataway, NJ, USA) and cRNAs made as above. We injected defolliculated stage V and VI Xenopus laevis oocytes (Xenoocyte, Dexter, MI, USA) with KCNQ cRNAs (2–10 ng) and incubated the oocytes at 16 °C in ND96 oocyte storage solution containing penicillin and streptomycin, with daily washing, for 2–4 days prior to two-electrode voltage-clamp (TEVC) recording.
We placed oocytes in a small-volume oocyte bath (Warner) and viewed them with a dissection microscope for cellular electrophysiology. We sourced chemicals from Sigma-Aldrich (St. Louis, MO, USA) and Combi-Blocks (San Diego, CA, USA). We studied effects of Salvia rosmarinus extracts and of compounds, solubilized directly in bath solution (in mM): 96 NaCl, 4 KCl, 1 MgCl2, 1 CaCl2, 10 HEPES (pH 7.6). We introduced extracts or compounds into the oocyte recording bath by gravity perfusion at a constant flow of 1 ml per minute for 3 min prior to recording. Pipettes were of 1-2 MΩ resistance when filled with 3 M KCl. […] We analyzed data using Clampfit (Molecular Devices) and Graphpad Prism software (GraphPad, San Diego, CA, USA), stating values as mean ± SEM. We plotted raw or normalized tail currents versus prepulse voltage and fitted with a single Boltzmann function:1 g=(A1−A2)/1+exp[V1/2−V/Vs]y+A2 where g is the normalized tail conductance, A1 is the initial value at -∞, A2 is the final value at +∞, V1/2 is the half-maximal voltage of activation and Vs the slope factor. We fitted activation and deactivation kinetics with single exponential functions.
Test [2] has as its system voltage-gated calcium channel, Cav3.2. Also noted: method as in PMID 29073181. To be noted: cited from earlier work.
For test [3], the system named is KCNQ3/5. Also noted: method as in PMID 11159685. Particulars: cited from earlier work.
Test [4] has as its system KCNQ2/3 channels. Also noted: method as in PMID 35459955. Particulars: cited from earlier work.

KCNQ3* (KCNQ3-A315T), sequence (O43525 whole entry A315T): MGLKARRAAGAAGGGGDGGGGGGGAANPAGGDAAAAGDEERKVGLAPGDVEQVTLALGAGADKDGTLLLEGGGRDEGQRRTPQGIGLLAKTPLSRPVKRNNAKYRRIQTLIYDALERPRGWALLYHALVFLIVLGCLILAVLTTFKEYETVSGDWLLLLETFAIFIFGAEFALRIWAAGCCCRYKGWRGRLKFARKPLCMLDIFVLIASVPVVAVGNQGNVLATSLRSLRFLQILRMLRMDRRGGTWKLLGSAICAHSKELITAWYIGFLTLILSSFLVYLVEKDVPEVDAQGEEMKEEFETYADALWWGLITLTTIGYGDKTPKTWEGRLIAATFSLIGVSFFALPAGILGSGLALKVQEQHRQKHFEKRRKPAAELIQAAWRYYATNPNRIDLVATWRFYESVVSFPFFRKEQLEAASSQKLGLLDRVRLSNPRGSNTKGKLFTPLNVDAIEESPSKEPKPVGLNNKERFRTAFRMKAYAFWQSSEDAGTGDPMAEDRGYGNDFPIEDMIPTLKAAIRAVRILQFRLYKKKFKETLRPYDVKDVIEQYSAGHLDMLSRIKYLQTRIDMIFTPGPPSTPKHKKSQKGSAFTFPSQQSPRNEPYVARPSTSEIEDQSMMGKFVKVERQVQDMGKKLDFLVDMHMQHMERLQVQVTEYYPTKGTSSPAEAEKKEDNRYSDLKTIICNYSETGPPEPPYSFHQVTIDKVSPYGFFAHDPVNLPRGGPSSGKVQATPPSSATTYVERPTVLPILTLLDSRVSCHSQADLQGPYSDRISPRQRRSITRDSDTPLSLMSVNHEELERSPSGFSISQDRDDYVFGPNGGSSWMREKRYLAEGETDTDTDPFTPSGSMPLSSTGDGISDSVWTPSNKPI

As to `O=C(/C=C/c1ccc(O)c(O)c1)O[C@H](Cc1ccc(O)c(O)c1)C(=O)O` [Rosmarinic acid], in test [1], the Slope worked out at 4.36 ± 0.60 mV, the “V0.5 Normalized tail current” value was -49.64 ± 0.84 mV and the “V0.5 non-normalized tail current” value is on record as -50.09 ± 3.47 mV. Further, the IC50 in test [2] is 49.9 µM.
As to `CCOC(=O)Nc1ccc(NCc2ccc(F)cc2)cc1N` [retigabine], the “shift in V0.5 of KCNQ3/5 activation” value in test [3] (30 µM) is −31.8 mV. Moreover, the EC50 in test [3] was 1.4 µM.
For `Oc1cc(Cl)ccc1Oc1ccc(Cl)cc1Cl` [triclosan], the EC50 in test [4] was 32 µM.

The term IC50 denotes the concentration that gives 50% inhibition. For orientation: EC50 means the midpoint of the concentration-response curve.
